# Experimental data reported in patent publication US20240270759A1, “Preparation of SHP2 phosphatase inhibitors and its applications” (Ya Therapeutics Inc, priority 2021, published 2024).
# Molecular target: T1, SHP2 full-length protein (Homo sapiens, UniProt Q06124)
# T1 construct: purchased BPS Bioscience #79330
# T1 sequence (Q06124 1-593): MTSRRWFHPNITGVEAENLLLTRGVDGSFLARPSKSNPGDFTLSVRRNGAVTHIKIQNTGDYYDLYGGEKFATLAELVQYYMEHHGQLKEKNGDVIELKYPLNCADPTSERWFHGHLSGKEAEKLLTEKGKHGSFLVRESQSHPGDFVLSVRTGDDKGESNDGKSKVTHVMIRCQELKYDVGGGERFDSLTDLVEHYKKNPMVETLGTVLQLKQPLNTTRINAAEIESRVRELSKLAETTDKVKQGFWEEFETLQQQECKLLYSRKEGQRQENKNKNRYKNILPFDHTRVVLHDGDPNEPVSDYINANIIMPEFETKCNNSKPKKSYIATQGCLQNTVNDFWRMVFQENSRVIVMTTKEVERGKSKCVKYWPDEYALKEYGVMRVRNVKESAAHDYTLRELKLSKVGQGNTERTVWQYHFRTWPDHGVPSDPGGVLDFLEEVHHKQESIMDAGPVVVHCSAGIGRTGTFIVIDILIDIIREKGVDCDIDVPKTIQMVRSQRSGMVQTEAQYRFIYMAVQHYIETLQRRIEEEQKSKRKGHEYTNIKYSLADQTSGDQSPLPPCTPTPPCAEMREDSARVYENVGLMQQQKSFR
# Assay: SHP2 allosteric inhibition experiment (Homogeneous Full Length SHP-2 Assay Kit)
# Assay type: biochemical
# Details: full-length SHP2 0.06 nM with SHP-2 activating peptide; ten-point, 1 μM to 0.05 nM; read-out: IC50 Values of Compounds Inhibiting SHP2
# Source text: The following further describes and explains the present invention in combination with test examples, but these examples are not meant to limit the scope of the present invention. SHP2 allosteric inhibition experiment
# The purpose of this test is to measure the ability of the compounds to inhibit the allosteric activity of the SHP2 full-length protein. Experimental equipment: a centrifuge (5810R) is purchased from Eppendorf Company; pipettes are purchased from Eppendorf Company and Rainin Company, and microplate readers are purchased from BioTek Company of the United States, SynergyH1 multimode microplate reader.
# Experimental method: Homogeneous Full Length SHP-2 Assay Kit (BPS Bioscience, #79330) is used to detect SHP2 activity in vitro. First, add 18 μL of Master Mix to 96-well low-adsorption microplate (NUNC, #267342), that is, 0.5 μL of SHP-2 activating Peptide and 5 mM DTT are included in the reaction buffer with a final concentration of 1×. After centrifugation, add 5 μL of the compound to be tested in DMSO (final DMSO content is 1% (V/V) in each well: dissolve the compound to be tested in DMSO to 1 mM, conduct triple dilution with a total of 10 concentration levels ranging from 1 μM to 0.05 nM in the reaction buffer. After diluting SHP2 in 1× reaction buffer to a final concentration of 0.06 nM, add it to the reaction microwell plate, 2 μL per well. Set a full activity control ([…]) and a full inhibition control (without SHP-2) on the reaction plate, and incubate the reaction mixture at room temperature for 60 minutes after centrifugation.
# After incubation, add 25 μL of Substrate solution to each well, containing Substrate with a final concentration of 10 μM and DTT with a final concentration of 5 mM, and after centrifugation, continue to incubate at room temperature for 30 minutes. After the reaction, set the excitation wavelength at 340 nm, the emission wavelength at 455 nm, and the gain value to 75 on the Synergy H1 microplate reader (Biotek) for reading.
# Take the full activity control and full inhibition control as the values of Max and Min, and calculate the percentage inhibition rate of the wells treated with the compound based on the positive control wells (DMSO control wells) and negative control wells (no kinase added) on the reaction plate, (inhibition rate percentage=100−[(test compound−Min average value)/(Max average value−Min average value)]×100%. IC50 values of test compounds are calculated by fitting percentage of inhibition and ten-point concentration data to a 4-parameter nonlinear logic formula using GraphPad prism.
row,SMILES,IC50 [nM]
1,"C[C@@H]1OCC2(CCN(c3ncc(Sc4cccc(NC(=O)c5ccccn5)c4Cl)cn3)CC2)[C@@H]1N [Compound 125, N-(3-((2-((3S,4S)-4-amino-3-methyl-2-oxa-8-azaspiro[4.5]decane-8-yl)pyrimidine-5-yl)mercapto)-2-chlorophenyl)pyridine-2-carboxamide]",≤ 10
2,"NC1c2cccnc2CC12CCN(c1ccc3c(=O)n(-c4cccc(Cl)c4Cl)c(=O)[nH]c3c1)CC2 (stereo in doubt) [Compound 7, (S)-7-(5-Amino-5,7-dihydrospiro [cyclopenta[b]pyridine-6,4′-piperidine]-1′-yl)-3-(2,3-dichlorophenyl)quinazoline-2,4(1H,3H)-dione]",≤ 10
3,"Nc1nccc(-n2c(=O)[nH]c3nc(N4CCC5(CC4)Cc4cnccc4[C@H]5N)cnc3c2=O)c1Cl [Compound 20, (S)-3-(2-amino-3-chloropyridine-4-yl)-7-(5-amino-5,7-dihydrospiro[cyclopenta[c]pyridine-6,4′-piperidine]-1′-yl)pteridine-2,4(1H,3H)-dione]",≤ 10
4,"C[C@@H]1OCC2(CCN(c3ncc(Sc4cccc(Nc5ncccn5)c4Cl)cn3)CC2)[C@@H]1N [Compound 120, (3S,4S)-8-(5-((2-chloro-3-(pyrimidine-2-amino)phenyl)mercapto)pyrimidine-2-yl)-3-methyl-2-oxa-8-azaspiro[4.5]decane-4-amine]",≤ 10
5,"N[C@H]1c2ccncc2CC12CCN(c1ccc3c(=O)n(-c4cccc(Cl)c4Cl)c(=O)[nH]c3c1)CC2 [Compound 5, (S)-7-(5-Amino-5,7-dihydrospiro[cyclopenta[c]pyridine-6,4′-piperidine]-1′-yl)-3-(2,3-dichlorophenyl)auinazoline-2.4(1H,3H)-dione]",≤ 10
6,C[C@@H]1OCC2(CCN(c3cnc4nc(Sc5cccc(Oc6ccn(C)n6)c5Cl)ncc4n3)CC2)[C@@H]1N [Compound 94],≤ 10

# Further lines, results first:
row,IC50 [nM],SMILES
1,≤ 10,"CC(C)n1ccc(-c2cccc(Sc3ncc(N4CCC5(CC4)CO[C@@H](C)[C@H]5N)cn3)c2Cl)n1 [Compound 101, (3S,4S)-8-(2-((2-chloro-3-(1-isopropyl-1H-pyrazole-3-yl)phenyl)mercapto)pyrimidine-5-yl)-3-methyl-2-oxa-8-azaspiro[4.5]decane-4-amine]"
2,≤ 10,"C[C@@H]1OCC2(CCN(c3cnc4c(=O)n(-c5ccnc(N)c5Cl)c(=O)[nH]c4n3)CC2)[C@@H]1N [Compound 17, 3-(2-amino-3-chloropyridine-4-yl)-7-((3S,4S)-4-amino-3-methyl-2-oxa-8-azaspiro[4.5]decane-8-yl)pteridine-2,4(1H,3H)-dione]"
3,≤ 10,"C[C@@H]1OCC2(CCN(c3ncc(Sc4cccc(Nc5cnccn5)c4Cl)cn3)CC2)[C@@H]1N [Compound 121, (3S,4S)-8-(5-((2-chloro-3-(pyrazine-2-amino)phenyl)mercapto)pyrimidine-2-yl)-3-me thyl-2-oxa-8-azaspiro[4.5]decane-4-amine]"
4,≤ 10,"C[C@@H]1OCC2(CCN(c3nnc(Sc4cccc(NC(=O)c5c(O)nc6n(c5=O)CCCC6)c4Cl)nn3)CC2)[C@@H]1N [Compound 137, N-(3-((5-((3S,4S)-4-amino-3-methyl-2-oxa-8-azaspiro[4.5]decane-8-yl)s-tetrazine-3-yl)mercapto)-2-chlorophenyl)-2-hydroxy-4-oxa-6,7,8,9-tetrahydro-4H-pyridinyl[1,2-a]pyrimidine-3-carboxamide]"
5,≤ 10,"C[C@@H]1OCC2(CCN(c3ncc(Sc4cccc(-c5ccncn5)c4Cl)cn3)CC2)[C@@H]1N [Compound 118, (3S,4S)-8-(5-((2-chloro-3-(pyrimidine-4-yl)phenyl)mercapto)pyrimidine-2-yl)-3-methyl-2-oxa-8-azaspiro[4.5]decane-4-amine]"
6,10 to 100,CC1(N)CCN(c2cnc3c(=O)n(-c4cccc(Cl)c4Cl)c(=O)[nH]c3n2)CC1 [Compound 11]
